Like-named read-outs stand apart in the source and are kept apart here. Residues, ends and D or L forms follow the SMILES beside them. No end group written: not given here. *: point of attachment. Paclitaxel(2'-O-succinyl) = CC(=O)O[C@H]1C(=O)[C@@]2(C)[C@H]([C@H](OC(=O)c3ccccc3)[C@]3(O)C[C@H](OC(=O)[C@H](OC(=O)CCC(=O)*)[C@@H](NC(=O)c4ccccc4)c4ccccc4)C(C)=C1C3(C)C)[C@]1(OC(C)=O)CO[C@@H]1C[C@@H]2O
Key:
A549 cells [1] = assay: Cell-cycle analysis, PI flow cytometry; format: cell-based; conditions: 5 μM, 48 h, triplicate
Procedure: (§1) After that, the cells were harvested by trypsinization, washed in PBS twice, and fixed in 70% cold ethanol for 24 h at 4 °C. The fixed cells were washed in cold PBS and then resuspended in 0.5 mL of PBS containing 50 μg/mL PI, 0.1% Triton-X-100, 0.1% sodium citrate, and 100 μg/mL RNase. After incubation at 4 °C in the dark for 30 min, the fluorescence-activated cells were sorted. The cellular DNA content was analyzed by flow cytometry (Becton Dickinson, Franklin Lakes, NJ). Each analysis contained at least 10 000 cells. […] The percentages of cells in different cell cycle phases were then recorded. Each experiment was performed in triplicate, and the results were expressed as the mean ± SD.

A549 cells [2] = assay: Cell apoptosis detection, annexin V-FITC/PI flow cytometry; format: cell-based; conditions: 10 μM, 48 h, triplicate
Procedure: (§2) Cell apoptosis was determined by an annexin V-FITC/PI assay. The externalization of phosphatidylserine, a result of early stage apoptosis, was detected by FITC-annexin V protein staining, and the membrane damage due to late-stage apoptosis was detected by the binding of PI to nuclear DNA. Briefly, 2 × 10^5 A549 and A549T cells were plated in 6-well plates and incubated for 24 h. After exposure to the different drugs at a concentration of 10 μM for 48 h, the cells were harvested by trypsinization, washed in PBS twice and incubated in the dark for 10 min at room temperature in 500 μL of binding buffer containing annexin V-FITC (1 μg/mL) and PI (1 μg/mL). The cells were immediately analyzed by flow cytometry (Becton Dickinson, Franklin Lakes, NJ). The fluorescence intensity of annexin V-FITC was measured at an excitation/emission wavelength of 488/530 nm and that of PI was measured at an excitation/emission wavelength of 488/617 nm. Approximately 10 000 cells were analyzed in each of the samples. Each assay was repeated in triplicate.

A549T cells [3] = assay: Cytotoxicity study, MTT colorimetric assay; format: cell-based; conditions: for IC50 value as % of the IC50 of PTX: GraphPad Prism, p < 0.01 vs PTX
Procedure: The inhibitory activities of the drug samples on cell growth were evaluated using a 3-(4,5-dimethylthiazol-2-yl)-2,5-diphenyltetrazolium bromide (MTT) colorimetric assay. A549 and A549T cells were harvested by trypsinization and resuspended at a concentration of 2 × 10^4 cells/mL in fresh culture medium. Then, the cells were seeded at a density of 5000 cells per well in 96-well plates. […] The concentration of the drugs ranged from 0.1 μM to 100 μM. After 24 h of incubation, the drug-containing media were abandoned, and 20 μL of MTT (5 mg/mL) solution was added to each well. The plate was incubated for an additional 4 h, and then, 200 mL of DMSO was added to each well to dissolve any formed purple formazan crystals. The plates were vigorously shaken before measuring the relative color intensity. The absorbance at 570 nm of each well was measured with a plate reader.

A549T cells [4] = format: cell-based; conditions: 5 μM, 48 h, triplicate
Procedure: as §1

A549 tumor = format: in vivo, BALB/c nude mice; conditions: A549 tumor-bearing nude mice, 1000 μM, 100 μL, peritumoral injection three times over 8 d; for tumor inhibition rate: tumors dissected and weighed after 24 or 30 d; for tumor inhibition rate / decrease of tumor volume compared with PTX: six mice per group; for decrease of tumor volume compared with PTX: from 22 to 30 d
Source text: (§3) The protocol to evaluate the in vivo antitumor efficacy of the PTX-CPP conjugates was approved by the ethics committee of Fudan University. Four-week-old female BALB/c nude mice were purchased and housed in the Animal Care Facilities in the School of Pharmacy, Fudan University. BALB/c mice bearing subcutaneous tumors were used as an animal model for the evaluation of the anticancer activities of PTX-LMWP and PTX-TAT. The subcutaneous tumor xenograft model was established by inoculating 2 × 10^6 A549 or A549T cells (in 100 μL of cell culture medium) into the subcutaneous tissue of the armpit of the right anterior limb (Gu et al., [2014]). Tumor size was measured with Vernier calipers for the largest (length) and smallest (width) superficial visible diameters of the protruding tumor mass through the skin. Tumor volumes were calculated according to the following formula: volume = 0.52 × W^2×L, where W and L represent the width and the length, respectively (Lee et al., [2011]). The drugs were administered 2 weeks after tumor implantation, when the size of the tumors reached approximately 100–150 mm^3. […] Each experimental group contained six mice. The mice were treated (100 μL volume) three times over 8 d via peritumoral injection. Tumor volumes were measured at 2-d intervals. At the end of the experiment, the mice were sacrificed, and necropsies were performed. The tumors were removed, weighed and fixed with formalin.

A549T tumor = format: in vivo, BALB/c nude mice; conditions: 1000 μM
Source text: as §3

A549 cells [5] = assay: Cytotoxicity study, MTT colorimetric assay; conditions: for cell viability / IC50 value as % of the IC50 of PTX: 24 h; for IC50 value as % of the IC50 of PTX: GraphPad Prism, p < 0.01 vs PTX
Procedure: The inhibitory activities of the drug samples on cell growth were evaluated using a 3-(4,5-dimethylthiazol-2-yl)-2,5-diphenyltetrazolium bromide (MTT) colorimetric assay. A549 and A549T cells were harvested by trypsinization and resuspended at a concentration of 2 × 10^4 cells/mL in fresh culture medium. Then, the cells were seeded at a density of 5000 cells per well in 96-well plates. […] The concentration of the drugs ranged from 0.1 μM to 100 μM. After 24 h of incubation, the drug-containing media were abandoned, and 20 μL of MTT (5 mg/mL) solution was added to each well. The plate was incubated for an additional 4 h, and then, […] of DMSO was added to each well to dissolve any formed purple formazan crystals. The plates were vigorously shaken before measuring the relative color intensity. The absorbance at 570 nm of each well was measured with a plate reader.

A549T cells [6] = assay: Mitochondrial membrane potential (Δψm) determination, JC-1 flow cytometry; format: cell-based; conditions: 10 μM, 48 h, triplicate
Procedure: Changes in the mitochondrial membrane potential (Δψm) were detected using JC-1 and analyzed with flow cytometry. Briefly, A549 and A549T cells were seeded at a density of 1 × 10^5 cells/mL in 6-well plates and exposed to the drugs (10 μM) for 48 h. The control experiments were performed by adding only culture medium. Then, the cells were harvested by trypsinization, washed in PBS twice, incubated with JC-1 ([…]) at 37 °C for 10 min in the dark, and finally analyzed by flow cytometry (Becton Dickinson, Franklin Lakes, NJ). Each assay was repeated in triplicate. JC-1 accumulates in mitochondria that have a high membrane potential and then dimerizes due to the high local concentrations achieved. Dimerized JC-1 emits red fluorescence, while monomeric JC-1 emits green fluorescence. The results are expressed as a ratio of red to green fluorescence.

A549T cells [7] = assay: Cell apoptosis detection, annexin V-FITC/PI flow cytometry; format: cell-based; conditions: 10 μM, 48 h, triplicate
Procedure: as §2

A549 cells [8] = assay: Cellular uptake assay (intracellular drug accumulation); format: cell-based; conditions: 20 μM, incubation 15 min to 4 h, UPLC
Procedure: The cellular uptake experiment was implemented basing on the protocol designed by Meng with some modifications (Meng et al., [2011]). Briefly, A549 and A549T cells were cultivated in chambered 24-well plates with 5% CO2 at 37 °C for 48 h. Then, the adherent cells were washed twice with PBS. Each of the three drugs was diluted in cell medium at concentrations of 10 μM and 20 μM and added to the chambers. The cells were incubated for 2 h and washed four times with PBS after incubation. After that, the cells were scraped from the wells and quantitatively transferred to Eppendorf centrifuge tubes. The resulting cell/saline suspensions were sonicated for 20 cycles of 2 s each with 2 s of rest between each cycle using a probe sonicator. The lysed cell solution was centrifuged at 7000 g for 30 min at 4 °C. Then, 100 μL of the supernatant was withdrawn carefully and tested with UPLC (BEH C18, 1.7 μm, 2.1 × 50 mm). The flow rate was 0.3 mL/min, and the mobile phase consisted of 55% solvent A (PBS, pH = 5) and 45% solvent B (acetonitrile). To further test the change in cellular uptake against incubation time, the drugs (20 μM) were added to the cells, and the cells were then incubated for different times, ranging from 15 min to 4 h. The other steps of the experiment were performed as described above.

[9] = A549T tumor-bearing nude mice, 100 μL, peritumoral injection three times over 8 d

Row | Compound | percentage of late apoptotic cells (PI+/annexin V+) (A549 cells [2]) [%] | effect on cell-cycle distribution (A549T cells [4]) | tumor inhibition rate (A549 tumor) [%] | tumor growth (tumor volume) compared with the control (A549T tumor; [9]) | percentage of early apoptotic cells (PI−/annexin V+) (A549T cells [7]) [%] | percentage of late apoptotic cells (PI+/annexin V+) (A549T cells [7]) [%] | IC50 value as % of the IC50 of PTX (A549T cells [3]; A549T cells, MTT, 24 h) [%] | decrease of tumor volume compared with PTX (A549 tumor) | tumor inhibition rate (A549T tumor; mouse, in vivo) [%] | IC50 value as % of the IC50 of PTX (A549 cells [5]; A549 cells, MTT) [%] | further results
1 | CC(=O)O[C@H]1C(=O)[C@@]2(C)[C@H]([C@H](OC(=O)c3ccccc3)[C@]3(O)C[C@H](OC(=O)[C@H](O)[C@@H](NC(=O)c4ccccc4)c4ccccc4)C(C)=C1C3(C)C)[C@]1(OC(C)=O)CO[C@@H]1C[C@@H]2O [PTX, Paclitaxel, reference compound] | 13.03 | a large number of A549T cells were induced into tetraploids | 31.06 | no significant difference in the tumor volumes between the control and PTX groups |  |  |  |  |  |  | effect on cell-cycle distribution (A549 cells [1]): substantially increased the percentages of cells in G2/M phase cell-cycle arrest; effect on cell viability (A549T cells [3]; A549T cells, MTT, 24 h, concentrations below 1000 nM): no effect on cell viability; tumor growth (tumor volume) compared with the control (A549 tumor): significant antitumor effect; tumor inhibition rate (A549T tumor; A549T tumor-bearing nude mice, 100 μL, peritumoral injection three times over 8 d, tumors dissected and weighed after 24 or 30 d, six mice per group): 11.0%; cell viability (A549 cells [5]; A549 cells, MTT, concentration below 1 nM): higher than 80%; cell viability (A549 cells [5]; A549 cells, MTT, concentrations from 100 nM to 100 000 nM): 40%
2 | CC(=O)O[C@H]1C(=O)[C@@]2(C)[C@H]([C@H](OC(=O)c3ccccc3)[C@]3(O)C[C@H](OC(=O)[C@H](OC(=O)CCC(=O)N[C@H](C(=O)N[C@@H](CO)C(=O)N[C@@H](CCCNC(=N)N)C(=O)N[C@@H](CCCNC(=N)N)C(=O)N[C@@H](CCCNC(=N)N)C(=O)N[C@@H](CCCNC(=N)N)C(=O)N[C@@H](CCCNC(=N)N)C(=O)N[C@@H](CCCNC(=N)N)C(=O)NCC(=O)NCC(=O)N[C@@H](CCCNC(=N)N)C(=O)N[C@@H](CCCNC(=N)N)C(=O)N[C@@H](CCCNC(=N)N)C(=O)N[C@@H](CCCNC(=N)N)C(=O)O)C(C)C)[C@@H](NC(=O)c4ccccc4)c4ccccc4)C(C)=C1C3(C)C)[C@]1(OC(C)=O)CO[C@@H]1C[C@@H]2O [PTX-LMWP] ({Paclitaxel(2'-O-succinyl)}-VSRRRRRRGGRRRR-OH; N-terminus and C-terminus assumed) | 84.03 | limited generation of tetraploids but a large number of cells in diploid-S phase cell-cycle arrest | 62.92 | considerable antitumor effect | 38.10 | 55.75 | 21.5 | 1.45–1.80 fold | 43.13 | 33.5 | effect on mitochondrial membrane potential (Δψm), ratio of red to green JC-1 fluorescence (A549T cells [6]): significant breakdown of the Δψm compared with the PTX-TAT treatment; cellular uptake against incubation time (A549 cells [8]): stronger than that of PTX-TAT; IC50 value compared with PTX-TAT (A549T cells [3]; A549T cells, MTT, p < 0.01): remarkably lower than that of PTX-TAT
3 | CC(=O)O[C@H]1C(=O)[C@@]2(C)[C@H]([C@H](OC(=O)c3ccccc3)[C@]3(O)C[C@H](OC(=O)[C@H](OC(=O)CCC(=O)NCCN4C(=O)CC(SC[C@H](N)C(=O)NCC(=O)NCC(=O)NCC(=O)N[C@@H](Cc5ccc(O)cc5)C(=O)NCC(=O)N[C@@H](CCCNC(=N)N)C(=O)N[C@@H](CCCCN)C(=O)N[C@@H](CCCCN)C(=O)N[C@@H](CCCNC(=N)N)C(=O)N[C@@H](CCCNC(=N)N)C(=O)N[C@@H](CCC(N)=O)C(=O)N[C@@H](CCCNC(=N)N)C(=O)N[C@@H](CCCNC(=N)N)C(=O)N[C@@H](CCCNC(=N)N)C(=O)O)C4=O)[C@@H](NC(=O)c4ccccc4)c4ccccc4)C(C)=C1C3(C)C)[C@]1(OC(C)=O)CO[C@@H]1C[C@@H]2O (stereo partly shown) [PTX-TAT] | 72.57 | higher tetraploid-G2/M phase arrest than those incubated with PTX | 63.32 | considerable antitumor effect | 23.15 | 54.20 | 39.5 | 1.51–1.77 fold | 42.47 | 47.2 | 
4 | N=C(N)NCCC[C@H](NC(=O)[C@H](CCCNC(=N)N)NC(=O)[C@H](CCCNC(=N)N)NC(=O)[C@H](CCC(N)=O)NC(=O)[C@H](CCCNC(=N)N)NC(=O)[C@H](CCCNC(=N)N)NC(=O)[C@H](CCCCN)NC(=O)[C@H](CCCCN)NC(=O)[C@H](CCCNC(=N)N)NC(=O)CNC(=O)[C@H](Cc1ccc(O)cc1)NC(=O)CNC(=O)CNC(=O)CNC(=O)[C@@H](N)CS)C(=O)O [TAT, reference compound] |  |  |  |  |  |  |  |  |  |  | toxicity of the CPPs alone (cell viability) (A549T cells [3]; A549T cells, MTT, same molar concentrations as PTX): No harmful effect; toxicity of the CPPs alone (cell viability) (A549 cells [5]; A549 cells, MTT, same molar concentrations as PTX): No harmful effect
5 | VSRRRRRRGGRRRR [LMWP, reference compound] |  |  |  |  |  |  |  |  |  |  | toxicity of the CPPs alone (cell viability) (A549T cells [3]): No harmful effect; toxicity of the CPPs alone (cell viability) (A549 cells [5]): No harmful effect
